Where “and” joins values, the source holds several entries; their conditions need not be identical. Identical values can stand only once. Entries after “also recorded” stand apart in the source; their conditions may differ.
What was measured:
Assay type in all cases: in vivo, Sprague Dawley rats
[1] = test system: rats with middle cerebral artery occlusion (MCAO); assay: Hindlimb placing test after MCAO
[2] = test system: rats with middle cerebral artery occlusion (MCAO); assay: Body swing test after MCAO; conditions: for Body Swing Test (% right Swing): Group 3 mean, phase 2
Excerpt: In particular, the MCAO model in Sprague Dawley rats that was utilized in the experiments presented below mimics the conditions in human ischemic stroke. In this model, focal cerebral infarcts were made by permanent occlusion of the proximal right middle cerebral artery (MCA) using a modification of the method of Tamura et al. (No To Shinkei 1986; 38:747-51). Briefly, the temporalis muscle was bisected and reflected through an incision made midway between the eye and the ear canal. The proximal MCA was exposed through a subtemporal craniectomy without removing the zygomatic arch and without transecting the facial nerve.
In this experiment, Sprague Dawley rats were anesthetized, subjected to a surgery resulting in middle cerebral artery occlusion (MCAO), treated with and without 4-aminopyridine and behavioral assessments were performed as described below. Treatment was initiated at 4 weeks after stroke.
Dosing and Treatment: Rats were treated in accordance with the dosing schedule shown in Tables 2A, 2B, 3 and FIG. 2, with each Phase being a two week period of time. A solution of 4-AP was used in this experiment. Dosing was started at 4 weeks after ischemic event. 4-aminopyridine was dissolved in water for injection (WFI, Cellgro) and sterile filtered. Final concentrations of 0.315 mg/mL or 1.0 mg/mL of 4-aminopyridine were delivered at 2 mL/kg by gastric gavage, resulting in final doses of 0.63 mg/kg and 2 mg/kg respectively. Vehicle control treatment was WFI delivered at 2 mL/kg by gastric gavage. This study was divided into three treatment phases (1-3) with each randomized cohort of animals receiving a different dose level during each of the treatment phases. Starting on day 30 after MCAO (Day 30, start of phase 1), the animals received gavage dosing of solutions (2 mL/kg) approximately 12 hours apart, for a total of five doses. The same schedule was repeated with different treatment on Day 44 and Day 58 for phase 2 and 3 of the study, respectively. Animals were not treated during the 10 days between phases (washout period).
Treatment groups: Dosing was started 4 weeks after MCAO surgery. During these 4 weeks, weekly behavioral assessments, as defined below, were performed. Two dose levels of 4-AP plus vehicle control were assessed, with treatment starting at 4 weeks after ischemic event. All dosing was via gastric gavage, volume not to exceed 2 mL/kg. Animals were given the first dose and behavioral assessments were performed starting 60 minutes after dosing. […] Following the final behavioral assessment, drug was withdrawn for 10 or 11 days, behavior was re-assessed, and then animals were re-challenged with a cross-over treatment (Phase 2 of Table 2B) as described in Tables 2A, 2B and 3, followed by the same behavioral testing and dosing regimen. […]

Body weight of MCAO rats = conditions: individual animals and group Mean
Excerpt: Tables 16-18 show Cylinder Test Total Score (% of overall asymmetry) for each of Groups 1-3.

[3] = test system: rats with middle cerebral artery occlusion (MCAO); assay: Infarct volume measurement (H&E staining); conditions: % of contralateral hemisphere; for Mean infarct volume (%): Example 2 crossover, Day 63
Experimental: Euthanasia and post-mortem processing: Infarct Volume analysis. After the last behavioral assessment, rats were anesthetized deeply with ketamine/xylazine (100 mg/kg ketamine, 10 mg/kg xylazine, i.p.) and perfused transcardially with normal saline (with heparin 2 unit/ml) followed by 4% paraformaldehyde or formalin on Day 63. Brains were harvested and processed for histological assessment. A subset of 10 brains per group was processed for infarct volume measurement (H&E staining).
Infarct measurement: Brains were embedded in paraffin and 5 micron thick coronal sections were cut using a microtome. Sections were stained with hematoxylin and eosin (H&E), using standard methods. Seven coronal sections (+4.7, +2.7, +0.7, −1.3, −3.3, −5.3 and −7.3, compared to bregma respectively) from each brain were photographed by a digital camera, and the infarct area on each slice was determined by NIH Image (Image J) using the “indirect method” (area of the intact contralateral [left] hemisphere−area of intact regions of the ipsilateral [right] hemisphere) to correct for brain edema. Infarct areas were then summed among slices and multiplied by slice thickness (the distance between sections) to give total infarct volume, which was expressed as a percentage of intact contralateral hemispheric volume.
Euthanasia and post-mortem processing: At day 70 after MCAO, rats were anesthetized as described in Example 2, above.
Infarct measurement: Infarct measurement was performed as described in Example 2, above.

[4] = test system: rats with middle cerebral artery occlusion (MCAO); assay: Forelimb placing test after MCAO

For `Nc1ccncc1` [4-AP, 4-aminopyridine], which “Hind limb placing score compared to vehicle” value ([1]; Example 17, 0.5 mg/kg b.i.d. p.o., Day 59 post-MCAO) is on record?
Its value is “improved with the low dose but did not reach significance”.

And the “Hind limb test compared to vehicle” value ([1]; Example 17, 1 mg/kg b.i.d. p.o., Day 62 post-MCAO, p<0.05)?
The value was “measureable improvement”.

What about the “Hind limb function compared to vehicle” value ([1]; Example 17, 2 mg/kg b.i.d. p.o., Day 65 post-MCAO, p<0.001) of the same compound?
The value was “significant improvements”.

And the “Effect on global body control (body swing test)” value ([2]; Example 2, low (0.63 mg/kg) or high (2 mg/kg) dose b.i.d. p.o., started 4 weeks post MCAO, dose-dependent, reversible)?
Its value is “effective to improve global body control; also recorded: significant improvement”.

What about the Body swing performance ([2]; Example 17 dose escalation, groups diverged before treatment initiation) of the same compound?
The Body swing performance was “no conclusions can be drawn”.

What about the “Body Swing Test (% right Swing)” value ([2]; D 44 after MCAO) of the same compound?
Its value is 39.56%.

And the “Body Swing Test (% right Swing)” value ([2]; D 46 after MCAO)?
Its value is 40.44%.

And the “Weight” value (Body weight of MCAO rats; Group 1, D 1)?
Its value is 291 g and 317 g (2×) and 306 g and 315 g and 323 g and 294 g.

What about the “Weight” value (Body weight of MCAO rats; Group 1, D 7) of the same compound?
Its value is 328 g and 361 g and 359 g and 375 g and 369 g and 340 g and 366 g.

And the “Weight” value (Body weight of MCAO rats; Group 1, D 14)?
The value was 375 g and 403 g and 394 g and 421 g and 436 g and 382 g and 422 g.

And the “Weight” value (Body weight of MCAO rats; Group 1, D 21)?
Its value is 399 g and 419 g and 416 g and 444 g and 494 g and 428 g and 469 g.

What about the “Weight” value (Body weight of MCAO rats; Group 1, D 28) of the same compound?
The value was 427 g and 451 g and 436 g and 484 g and 525 g and 457 g and 506 g.

What about the “Weight” value (Body weight of MCAO rats; Group 1, D 30) of the same compound?
Its value is 425 g and 450 g and 435 g and 490 g and 544 g and 470 g and 512 g.

What about the “Weight” value (Body weight of MCAO rats; Group 1, D 32) of the same compound?
The value was 411 g and 441 g and 417 g and 470 g and 515 g and 454 g and 496 g.

And the “Weight” value (Body weight of MCAO rats; Group 1, D 42)?
The value was 448 g and 491 g and 449 g and 499 g and 565 g and 479 g and 543 g.

And the “Weight” value (Body weight of MCAO rats; Group 1, D 44)?
The value was 455 g and 501 g and 447 g and 511 g and 566 g and 480 g and 545 g and 454 g.

What about the “Weight” value (Body weight of MCAO rats; Group 1, D 46) of the same compound?
The value was 448 g and 490 g and 440 g and 494 g and 570 g and 488 g and 552 g.

What about the “Weight” value (Body weight of MCAO rats; Group 1, D 56) of the same compound?
Its value is 476 g and 509 g and 452 g and 523 g and 612 g and 496 g and 576 g.

What about the “Weight” value (Body weight of MCAO rats; Group 1, D 58) of the same compound?
Its value is 480 g and 520 g and 460 g and 530 g and 625 g and 512 g and 585 g.

And the “Weight” value (Body weight of MCAO rats; Group 1, D 60)?
The value was 475 g and 511 g and 456 g and 527 g and 615 g and 509 g and 587 g.

And the “Weight” value (Body weight of MCAO rats; Group 1, D −1)?
Its value is 305 g and 317 g and 311 g and 332 g and 340 g and 324 g and 330 g and 313 g.

And the “Mean infarct volume (%)” value ([3]; Group 1 (H, L, V))?
Its value is 45.0 (±1.8) %.

And the “Mean infarct volume (%)” value ([3]; Group 2 (L, V, H))?
The value was 41.4 (±2.3) %.

What about the “Mean infarct volume (%)” value ([3]; Group 3 (V, H, L)) of the same compound?
The value was 39.0 (±3.3) %.

And the “Mean (SE) Infarct Volume (%)” value ([3]; Example 17, 4-AP 0.5, 1 and 2 mg/kg b.i.d. Days 56-65, brains at day 70 after MCAO)?
Its value is 40.0 (2.3) %.

What about the “Forelimb placing compared to vehicle” value ([4]; Example 17, 0.5 mg/kg b.i.d. p.o., Day 59 post-MCAO, p<0.001) of the same compound?
Its value is “significantly improved in forelimb placing”.

And the “Forelimb test compared to vehicle” value ([4]; Example 17, 1 mg/kg b.i.d. p.o., Day 62 post-MCAO, p<0.001)?
Its value is “measureable improvement”.

What about the “Forelimb function compared to vehicle” value ([4]; Example 17, 2 mg/kg b.i.d. p.o., Day 65 post-MCAO, p<0.0001) of the same compound?
The value was “significant improvements”.

— patent US20160058743A1, “METHODS FOR TREATING SENSORIMOTOR IMPAIRMENTS ASSOCIATED WITH CERTAIN TYPES OF STROKE USING AMINOPYRIDINES” (ACORDA THERAPEUTICS, INC., priority 2013, published 2016)
